From US12048711B2, “Composition and use thereof in the manufacture of medicament for treating cancer” (priority 2020, dated 2024)

Key:
[1] = test system: liver cancer cell line HepG2; colorectal cancer cell line LoVo, HT29, SW620, SW480; test: MTT cell growth inhibition, Apatinib alone and with Sotagliflozin; type: cell-based; conditions: Apatinib alone 5-30 μM, 48 hours, FIG. 4-a-1 to 4-a-5
From the text: After obtaining the effectiveness of […] in Example 1, the present disclosure further validated another VEGFR-targeting TKI drug, Apatinib. According to the tissue distribution characteristics of VEGFR and SGLT1/2, the targets of Apatinib and Sotagliflozin, the followings cells were selected for experimental verification: liver cancer cell line HepG2; colorectal cancer cell line LoVo, HT29, SW620, SW480; cervical cancer HeLa; ovarian cancer SKOV3; gastric cancer NGC27; cholangiocarcinoma RBE; esophageal cancer KYSE3. After growing to 80% density, the cells were trypsinized, passaged and plated in a 96-well plate with 5000 cells per well. After 24 hours, the medium was replaced with a medium containing the corresponding concentration of Apatinib, Sotagliflozin, or the combination of Apatinib and Sotagliflozin. After 48 hours, the absorbance at each concentration was detected by the MTT method. The experiment included the following groups: Control group: cells were cultured in normal culture medium without drug added. […] The cell growth inhibition rate is calculated by dividing the absorbance value at each concentration by the absorbance value of the control group. […] In the figure, the concentration of Apatinib is taken as the abscissa and the cell growth inhibition rate is taken as the ordinate.

[2] = test system: Liver cancer cell line HepG2; test: IC50 determination of Apatinib+Sotagliflozin combination on HepG2; type: cell-based; conditions: Homo sapiens, single agent, cell survival rate after 2 h incubation, read-out: IC50 value on HepG2 cells
From the text: After obtaining the effectiveness of […] in Example 1, the present disclosure further validated another VEGFR-targeting TKI drug, Apatinib. According to the tissue distribution characteristics of VEGFR and SGLT1/2, the targets of Apatinib and Sotagliflozin, the followings cells were selected for experimental verification: liver cancer cell line HepG2; colorectal cancer cell line LoVo, HT29, SW620, SW480; cervical cancer HeLa; ovarian cancer SKOV3; gastric cancer NGC27; cholangiocarcinoma RBE; esophageal cancer KYSE3. After growing to 80% density, the cells were trypsinized, passaged and plated in a 96-well plate with 5000 cells per well. […] After 48 hours, the absorbance at each concentration was detected by the MTT method. […]
Apatinib test group (FIG. 4-b-1): cells were treated by adding Apatinib alone at 6 different concentrations, 0 μM, 5 μM, 10 μM, 20 μM, 30 μM and 40 μM, respectively, to the culture medium, and cell survival rate was measured after 2 h incubation.
Sotagliflozin test group (FIG. 4-b-2): cells were treated by adding Sotagliflozin alone at 7 different concentrations, 0 μM, 20 μM, 30 μM, 40 μM, 60 μM, 80 μM and 100 μM respectively, to the culture medium, and cell survival rate was measured after 2 h incubation. […]

lung cancer A549 cells [3] = test: Trypan blue staining of A549 cells treated with Gefitinib in sugar-free and sugar-containing medium; type: cell-based; conditions: 20 μM Gefitinib, 48 hours
Procedure: […]. A549 cells were grown to 80% density, passed, resuspended in a normal medium (25 mM glucose) to a concentration of 4×10^5 cells per ml, and plated in a 24-well plate with 1 ml per well. After 24 hours, the medium was changed to sugar-free medium (0 mM glucose) and normal medium, respectively, and added with Gefitinib for treating the cell. After 48 hours, the medium was discarded, and 1 ml of 1×PBS was added to wash once, and 1 ml of 1×Trypan Blue was added to each well for staining for 10 minutes. Then, the trypan blue staining solution was aspirated, and the plate was washed three times by adding 1 ml of 1×PBS, and photographed under a light microscope. […] […]. […] According to the background section, cancer cells mainly rely on the SGLT family of proteins to absorb sugar. Therefore, the present disclosure relates use of a composition comprising dual inhibitor Sotagliflozin of SGLT1 and SGLT2, the two most important members of the SGLT family highly expressed in cancer cells, and a tyrosine kinase inhibitor in the manufacture of a medicament for treating cancer.
. Based on the previous findings illustrated in FIG. 1, Sotagliflozin was purchased from Selleck Chemicals for growth inhibition test of cancer cell in vitro. […] Therefore, the concentration of Sotagliflozin used in the subsequent compositions of this experiment were lower than 80 μM to avoid affecting normal cells.

lung cancer A549 cells [4] = test: A549 xenograft tumor treatment trial in nude mice; type: in vivo, Balbc nude mice; conditions: for Average tumor volume: in mm³ (unit assumed)
Procedure: After growing to the logarithmic phase, A549 cells were collected and resuspended in serum-free DMEM medium to 5×10^7 cells per ml. Each mouse was inoculated with 100 μl of 5×10^6 cells, and the tumor size was measured 19 days later. Mice were grouped according to the tumor size, and the average tumor size in each group was the same. Mice were administered after grouping. […] The dosage of Gefitinib was 100 mg per kilogram according to the reported dose for the treatment of A549 xenografts in previous studies. The two drugs were administered by gavage, consistent with the current oral mode in clinical use. The dosing cycle was once every two days. The tumor size was measured every two days. After 40 days of administration, the test was ended, and the tumor was removed and weighed.

[5] = test system: liver cancer HepG2 cells, colorectal cancer LoVo, HT29, DLD1, SW480, and HCT116 cells; test: Growth inhibition by Lenvatinib alone and with Sotagliflozin in a variety of cell lines; type: cell-based; conditions: addition of Sotagliflozin at a safe dose; FIG. 5
From the text: Therefore, the effect of the combination in the safe concentration range of Sotagliflozin is better than the effect of each single agent. It is worth mentioning that the ability of Sotagliflozin in the combination to enhance the efficacy of VEGFR-targeting TKI drugs is not limited to a single drug of Apatinib.

[6] = test system: normal human umbilical cord epithelial cells; test: Determination of the safe concentration of Sotagliflozin on normal cells; type: cell-based
Procedure: The killing effect of Gefitinib on lung cancer A549 cells cultured in sugar-free medium and sugar-containing medium 48 hours after treating A549 cells with 20 μM Gefitinib, trypan blue staining was used to distinguish live cells from dead cells which were stained blue by trypan blue. Based on the previous findings illustrated in FIG. 1, Sotagliflozin was purchased from Selleck Chemicals for growth inhibition test of cancer cell in vitro. […] Therefore, the concentration of Sotagliflozin used in the subsequent compositions of this experiment were lower than 80 μM to avoid affecting normal cells.

[7] = test system: Lung cancer cell line A549; test: IC50 determination of EGFR inhibitor + Sotagliflozin combination on A549; type: cell-based; conditions: Homo sapiens, single agent, cell survival rate after 1 h incubation, read-out: IC50 value on A549 cells
Procedure: After growing to 80% density, the cells were trypsinized, passaged and plated in a 96-well plate with 5000 cells per well. After 24 hours, the medium was replaced with a medium containing the corresponding concentration of drug. After 48 hours, the absorbance at each concentration was detected by the MTT method.

[8] = A549 tumor-bearing mice, gavage once every two days, 40 days, Sotagliflozin 30 mg/kg, Gefitinib 100 mg/kg

In the case of N#CC1(c2ccc(NC(=O)c3cccnc3NCc3ccncc3)cc2)CCCC1 [Apatinib], the “inhibitory effect on tumor cells (cell growth inhibition rate)” value [1] is reported as “limited” and the IC50 [2] is reported as 46 µM.
COc1cc2ncnc(Nc3ccc(F)c(Cl)c3)c2cc1OCCCN1CCOCC1 [Gefitinib] was tested, and the “trypan blue staining (dead cells stained blue)” value (lung cancer A549 cells [3]; normal medium (25 mM glucose)) was “almost no blue coloration”, the “trypan blue staining (dead cells stained blue)” value (lung cancer A549 cells [3]; sugar-free medium (0 mM glucose)) was “almost all colored blue, indicating dead cells” and the “Tumor volume ratio of each group to the control group” value (lung cancer A549 cells [4]; mouse, in vivo) was 0.4881. For the same compound, the effectiveness evaluation (lung cancer A549 cells [4]; mouse, in vivo) was “ineffective” and the Average tumor volume (lung cancer A549 cells [4]; mouse, in vivo) was 504.8.
With COc1cc2nccc(Oc3ccc(NC(=O)NC4CC4)c(Cl)c3)c2cc1C(N)=O [Lenvatinib] the “effect of adding Sotagliflozin on inhibitory effect of Lenvatinib” value [5] was “enhanced the inhibitory effect”.
CCOc1ccc(Cc2cc([C@@H]3O[C@H](SC)[C@@H](O)[C@H](O)[C@H]3O)ccc2Cl)cc1 [Sotagliflozin] was tested, and the “concentration mainly exhibiting cell growth inhibition effect” value [6] was “lower than 80 μM”, the “concentration producing great cytotoxicity” value [6] was “higher than 80 μM” and the IC50 [7] was 73 µM. The IC50 [2] was 116 µM, the “inhibition of tumor growth (in words)” value (lung cancer A549 cells [4]; A549 tumor-bearing mice, FIG. 7-a to 7-c) was “can inhibit tumor growth” and the “Tumor growth inhibition rate” value (lung cancer A549 cells [4]; [8]) was 58.4%. For the same compound, the “Tumor volume ratio of each group to the control group” value (lung cancer A549 cells [4]; [8]) was 0.416, the Average tumor volume (lung cancer A549 cells [4]; [8]) was 430.3 and the effectiveness evaluation (lung cancer A549 cells [4]; effective if tumor growth inhibition rate greater than 60% and p value less than 0.05) was “ineffective”.
